The test system of assay [1] is Rattus norvegicus. Kind of assay: Antiinflammatory activity against carrageenan-induced paw edema in Wistar rat at 1.7 mg/kg, po. Also on record: dose 1.7 mg/kg. It is filed as functional, organism-based. (In general: Carrageenan injected into the paw causes an acute inflammation.)
The test system of assay [2] is Rattus norvegicus. Nature of the assay: Antiinflammatory activity against carrageenan-induced paw edema in Wistar rat at 1.08 mg/kg, po. It counts as functional, organism-based. More on the design: dose 1.08 mg/kg.
Assay [3] deals with Rattus norvegicus. Nature of the assay: Antiinflammatory activity against carrageenan-induced paw edema in Wistar rat at 1.8 mg/kg, po. It is filed as functional, organism-based. Also on record: dose 1.8 mg/kg.
Assay [4] deals with Rattus norvegicus. Nature of the assay: Antiinflammatory activity against carrageenan-induced paw edema in Wistar rat at 5 mg/kg, po. It is filed as functional.
Assay [5] concerns Rattus norvegicus. Kind of assay: Antiinflammatory activity against carrageenan-induced paw edema in Wistar rat at 1.3 mg/kg, po. Also on record: dose 1.3 mg/kg. It is filed as functional, organism-based.

Calls of active or inactive are those of the source. The calls are words filed in the database; no cut-off is given here.

What is called inhibition in vivo is the change of the read-out against control, counted positive when it falls. The low end stands for little suppression, the high end for strong suppression.

For the molecule `CC(=O)OC[C@H]1O[C@@H](O[C@H]2CC[C@]3(C)C4=C(CCC3C2)C2=CCC[C@@]2(C2[C@H]3O[C@]5(C)OC[C@H](C)C5(O)[C@H]3O[C@@H]2O)CC4)[C@H](O[C@@H]2O[C@H](CO)[C@H](O)[C@H](O)[C@H]2O)[C@@H](O)[C@@H]1O` (stereo not given in full), in the assay with Rattus norvegicus [1], the outcome was inactive. Take `C[C@H]1CO[C@@]2(C)O[C@@H]3C([C@@]45CCC=C4C4=C(CC5)[C@@]5(C)CC[C@H](O[C@@H]6O[C@H](CO)[C@@H](O)[C@H](O)[C@H]6O[C@@H]6O[C@H](CO)[C@H](O)[C@H](O)[C@H]6O)CC5CC4)[C@@H](O)O[C@@H]3C12O` (stereo not given in full): in the assay on Rattus norvegicus [2], the result was inactive.

Regarding `C[C@@]12CCC[C@H]1C1=C(CC2)[C@@]2(C)CC[C@H](O[C@@H]3O[C@H](CO[C@@H]4O[C@H](CO)[C@@H](O)[C@H](O)[C@H]4O)[C@@H](O)[C@H](O)[C@H]3O[C@@H]3O[C@H](CO)[C@H](O)[C@H](O)[C@H]3O)CC2CC1` (stereo not given in full), the result with Rattus norvegicus [3] was inactive. In turn, `COc1ccc2c(c1)c(CC(=O)O)c(C)n2C(=O)c1ccc(Cl)cc1` [INDOMETHACIN] displayed an inhibition in vivo at 5 mg/kg with Rattus norvegicus [4] of 85%. Regarding `C[C@@]12CCC[C@H]1C1=C(CC2)[C@@]2(C)CC[C@H](O[C@@H]3O[C@H](CO[C@@H]4O[C@H](CO)[C@@H](O)[C@H](O)[C@H]4O)[C@@H](O)[C@H](O)[C@H]3O)CC2CC1` (stereo not given in full), the result in the assay on Rattus norvegicus [5] was inactive.

These data come from ChEMBL document CHEMBL1146499, “New compounds from an extract of Vernonia colorata leaves with anti-inflammatory activity” (2004).
